Values belong to the compound of their own block, whether it stands above or below them. Starred links: 1 amine or outer side, 2 acyl side, 3 side chain; linkers in the order of their positions; H or OH if unused. Positions of bridges follow the written chain, without caps; N, C: chain ends. Non-standard residues stand in square brackets, D forms with d. Residues, ends and D or L forms follow the SMILES beside them. αMeNle(4R-Me,6-ylidene) = C[C@H](CC=[*:3])C[C@](C)(N[*:1])C(=O)[*:2]; X3 = C[C@@H](CC=[*:3])C[C@](C)(N[*:1])C(=O)[*:2]; X2 = O=C([C@@H](CC[*:3])N[*:1])[*:2]; S5 = C=CCCC[C@](C)(N)C(=O)O
How the values were obtained:
Estrogen receptor [1] = molecular target: T1, Estrogen receptor (Homo sapiens, UniProt P03372); experiment: (§1) Binding affinity to recombinant human ERalpha LBD (301 to 553 residues) expressed in Escherichia coli BL21(DE3) by surface plasmon resonance method
T1 sequence (P03372 whole entry): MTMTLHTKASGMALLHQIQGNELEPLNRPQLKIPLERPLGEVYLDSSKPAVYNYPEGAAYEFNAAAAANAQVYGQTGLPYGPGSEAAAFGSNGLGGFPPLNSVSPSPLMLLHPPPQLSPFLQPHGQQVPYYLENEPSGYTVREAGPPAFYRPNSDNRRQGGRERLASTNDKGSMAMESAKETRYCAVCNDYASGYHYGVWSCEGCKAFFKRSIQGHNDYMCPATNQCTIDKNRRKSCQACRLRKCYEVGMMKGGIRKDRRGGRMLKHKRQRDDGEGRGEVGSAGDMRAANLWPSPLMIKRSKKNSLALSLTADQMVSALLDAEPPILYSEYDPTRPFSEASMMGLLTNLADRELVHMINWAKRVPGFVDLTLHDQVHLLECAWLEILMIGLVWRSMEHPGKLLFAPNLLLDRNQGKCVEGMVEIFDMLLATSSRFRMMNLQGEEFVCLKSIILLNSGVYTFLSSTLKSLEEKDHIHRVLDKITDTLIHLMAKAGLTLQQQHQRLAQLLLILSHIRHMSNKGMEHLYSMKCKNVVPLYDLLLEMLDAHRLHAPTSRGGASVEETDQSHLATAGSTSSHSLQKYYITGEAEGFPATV

Estrogen receptor beta [2] = molecular target: Estrogen receptor beta (Homo sapiens, UniProt Q92731, C334S/C369S/C481S); experiment: (§2) Binding affinity to recombinant human ERbeta LBD (259 to 498 residues) C334S/C369S/C481S triple mutant expressed in Escherichia coli BL21(DE3) by surface plasmon resonance method
Chain of Estrogen receptor beta (Homo sapiens, UniProt Q92731, C334S/C369S/C481S) (Q92731 whole entry C334S/C369S/C481S, the tested form may be a part): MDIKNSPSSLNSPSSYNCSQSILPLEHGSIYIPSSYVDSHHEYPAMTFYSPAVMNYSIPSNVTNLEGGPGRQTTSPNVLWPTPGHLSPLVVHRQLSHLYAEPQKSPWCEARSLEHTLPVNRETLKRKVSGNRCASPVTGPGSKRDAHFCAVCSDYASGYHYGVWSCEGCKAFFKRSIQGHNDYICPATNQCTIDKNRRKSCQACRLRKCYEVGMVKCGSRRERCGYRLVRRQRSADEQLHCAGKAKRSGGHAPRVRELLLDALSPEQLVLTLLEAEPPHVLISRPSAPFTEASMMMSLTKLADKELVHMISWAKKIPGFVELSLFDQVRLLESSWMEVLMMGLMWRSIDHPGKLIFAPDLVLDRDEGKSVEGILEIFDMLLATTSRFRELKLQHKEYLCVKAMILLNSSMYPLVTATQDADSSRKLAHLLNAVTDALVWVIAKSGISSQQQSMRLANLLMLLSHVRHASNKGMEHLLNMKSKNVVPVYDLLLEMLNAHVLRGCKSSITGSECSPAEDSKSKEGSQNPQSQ

Estrogen receptor [3] = molecular target: T1, Estrogen receptor; experiment: Displacement of 5-iodoacetamidofluorescein-labelled SRC3 from C417-biotin labelled ERalpha (unknown origin) (304 to 554 residues) after 45 mins by TR-FRET assay
Estrogen receptor [4] = molecular target: T1, Estrogen receptor; experiment: Antagonist activity at full length recombinant human ERalpha expressed in baculovirus expression system assessed as inhibition of estradiol-induced Euphorium-labelled LTERHKILHRLLQEGSPSD peptide recruitment after 1.5 hrs by time-resolved fluorescence assay
Estrogen receptor [5] = molecular target: T1, Estrogen receptor; experiment: Binding affinity to recombinant human ERalpha LBD (301 to 553 residues) expressed in Escherichia coli BL21(DE3) using FITC-labelled compound after 1 hr by fluorescence polarization method
Estrogen receptor beta [6] = molecular target: Estrogen receptor beta (Homo sapiens, UniProt Q92731); experiment: Antagonist activity at full length recombinant human ERbeta expressed in baculovirus expression system assessed as inhibition of estradiol-induced Euphorium-labelled QAQQKSLLQQLLTE peptide recruitment after 1.5 hrs by time-resolved fluorescence assay
Chain of Estrogen receptor beta (Homo sapiens, UniProt Q92731) (Q92731 whole entry): as the sequence (Q92731 whole entry C334S/C369S/C481S, the tested form may be a part) above, with S334C, S369C, S481C counted along it

[7] = molecular target: T2, Estrogen receptor (Homo sapiens) (UniProt P03372); experiment: as §1
T2 sequence (whole entry): T1 sequence (P03372 whole entry)

[8] = tested on: Estrogen receptor beta (Homo sapiens), Q92731 [C334S,C369S,C481S]; experiment: as §2
Chain of Estrogen receptor beta (Homo sapiens), Q92731 [C334S,C369S,C481S] (Q92731 whole entry C334S/C369S/C481S): as the sequence (Q92731 whole entry C334S/C369S/C481S, the tested form may be a part) above

Kd (Estrogen receptor [1]): 4000 nM | Kd (Estrogen receptor beta [2]): 2800 nM
Compound: CC[C@H](C)[C@H](NC(=O)[C@H](CCCCN)NC(=O)[C@H](Cc1cnc[nH]1)NC(C)=O)C(=O)N[C@@H](CC(C)C)C(=O)N[C@@H](Cc1cnc[nH]1)C(=O)N[C@@H](CCC(N)=O)C(=O)N[C@@H](CC(C)C)C(=O)N[C@@H](CC(C)C)C(=O)N[C@@H](CCC(N)=O)C(=O)N[C@@]1(C)CCC/C=C\CCC[C@@](C)(C(=O)N[C@H](C(N)=O)C(C)C)NC(=O)[C@H](CO)NC(=O)[C@H](CO)NC(=O)[C@H](CO)NC1=O (Ac-HKILHQLLQ[S5]SSS[S5]V-NH2; staple (Z) 10-14)

IC50 (Estrogen receptor [3]): 1800 nM
Compound: CC(=O)N[C@@H](Cc1cnc[nH]1)C(=O)N[C@@H](CCCCN)C(=O)N[C@@]1(C)CCC/C=C\C[C@@H](C)C[C@@](C)(C(=O)N[C@@H](CC(C)C)C(=O)N[C@@H](CCC(N)=O)C(=O)N[C@@H](CC(=O)O)C(=O)N[C@@H](CO)C(N)=O)NC(=O)[C@H](CCCNC(=N)N)NC(=O)[C@H](Cc2cnc[nH]2)NC(=O)[C@H](CC(C)C)NC1=O (Ac-HK[S5]LHR[αMeNle(4R-Me,6-ylidene)]LQDS-NH2; staple (Z) 3-7)

Ki (Estrogen receptor [4]): 11 nM
Compound: CC[C@H](C)[C@@H]1NC(=O)[C@H](NC(=O)[C@@H](N)CCCNC(=N)N)CSSC[C@H](C(=O)N[C@@H](CCCNC(=N)N)C(=O)N[C@@H](CC(C)C)C(=O)N[C@@H](CC(C)C)C(=O)N[C@@H](CCC(N)=O)C(N)=O)NC(=O)[C@H](CC(C)C)NC1=O

Ki (Estrogen receptor [4]): 0.07 nM | Ki (Estrogen receptor beta [6]): 1.2 nM
Compound: CC[C@H](C)[C@@H]1NC(=O)[C@H](NC(=O)[C@@H](N)CCCNC(=N)N)CSSC[C@H](C(=O)N[C@@H](CCCNC(=N)N)C(=O)N[C@@H](CC(C)(C)C)C(=O)N[C@@H](CC(C)C)C(=O)N[C@@H](CCC(N)=O)C(N)=O)NC(=O)[C@H](CC(C)C)NC1=O

The remaining lines, values behind:

Compound: CC(=O)N[C@@H](Cc1cnc[nH]1)C(=O)N[C@@H](CCCCN)C(=O)N[C@@]1(C)C[C@@H](C)C/C=C\CCC[C@@](C)(C(=O)N[C@@H](CC(C)C)C(=O)N[C@@H](CCC(N)=O)C(=O)N[C@@H](CC(=O)O)C(=O)N[C@@H](CO)C(N)=O)NC(=O)[C@H](CCCNC(=N)N)NC(=O)[C@H](Cc2cnc[nH]2)NC(=O)[C@H](CC(C)C)NC1=O (Ac-HK[X3]LHR[S5]LQDS-NH2; staple (Z) 3-7)
IC50 (Estrogen receptor [3]): 89 nM

Compound: CC[C@H](C)[C@@H]1NC(=O)[C@H](NC(=O)[C@@H](N)CCCCN)CSSC[C@H](C(=O)N[C@@H](CCCNC(=N)N)C(=O)N[C@@H](CC(C)C)C(=O)N[C@@H](CC(C)C)C(=O)N[C@@H](CCC(N)=O)C(N)=O)NC(=O)[C@H](CC(C)C)NC1=O (H-K[dC]IL[dC]RLLQ-NH2; disulfide 2-5)
Ki (Estrogen receptor [4]): 25 nM

Compound: CC[C@H](C)[C@H](NC(=O)[C@H](Cc1ccc(O)cc1)NC(=O)[C@@H]1C[C@H](O)CN1C(=O)[C@H](C)NC(=O)[C@H](CC(C)C)NC(=O)CCCCCNC(=O)[C@H](CCC(N)=O)NC(=O)[C@H](CC(C)C)NC(=O)[C@H](CC(C)C)NC(=O)[C@H](CCCNC(=N)N)NC(=O)[C@@H]1CNC(=O)[C@@H](NC(=O)[C@@H](N)CCCNC(=N)N)CC(=O)N[C@@H]([C@@H](C)CC)C(=O)N[C@@H](CC(C)C)C(=O)N1)C(N)=O
Kd (Estrogen receptor [5]): 30 nM

Compound: CC[C@H](C)[C@@H]1NC(=O)[C@H](NC(=O)[C@@H](N)CCCNC(=N)N)CCSC[C@@H](C(=O)N[C@@H](CCCNC(=N)N)C(=O)N[C@@H](CC(C)C)C(=O)N[C@@H](CC(C)C)C(=O)N[C@@H](CCC(N)=O)C(N)=O)NC(=O)[C@H](CC(C)C)NC1=O (H-R[X2]ILCRLLQ-NH2; thioether 2-5)
Ki (Estrogen receptor [4]): 6.9 nM | Ki (Estrogen receptor beta [6]): 64 nM

Compound: CC[C@H](C)[C@H](NC(=O)[C@H](CCCCN)NC(=O)[C@H](Cc1cnc[nH]1)NC(=O)[C@H](CCCCN)NC(=O)[C@H](CCC(=O)O)NC(C)=O)C(=O)N[C@@H](CC(C)C)C(=O)N[C@@]1(C)CCC/C=C\CCC[C@@](C)(C(=O)N[C@@H](CC(=O)O)C(=O)N[C@@H](CO)C(N)=O)NC(=O)[C@H](CC(C)C)NC(=O)[C@H](CC(C)C)NC(=O)[C@H](CCCNC(=N)N)NC1=O (Ac-EKHKIL[S5]RLL[S5]DS-NH2; staple (Z) 7-11)
Kdiss [7]: 0.129 s⁻¹ | Kd (Estrogen receptor [1]): 75 nM | Kdiss [8]: 0.155 s⁻¹ | Kd (Estrogen receptor beta [2]): 155 nM

Reference: ChEMBL document CHEMBL4229451, “Recent advances in peptidomimetics antagonists targeting estrogen receptor α-coactivator interaction in cancer therapy” (Bioorg Med Chem Lett, 2018)
